Measured values as given in ChEMBL document CHEMBL3120151, “Synthesis and in vivo evaluation of N-ethylamino-2-oxo-1,2-dihydro-quinoline-3-carboxamide for inhibition of intestinal tumorigenesis in APC(Min/+) mice” (Bioorg Med Chem Lett, 2014).
Activity calls are given as the source filed them. The rule behind the calls is not given here.

Key:
Mus musculus [1] = experiment: Antitumor activity against intestinal polyp in APCMin/+ mouse model at 150 ppm administered with diet from week 6 to week 18 relative to control; assay type: functional
Mus musculus [2] = experiment: Antitumor activity against intestinal polyp in APCMin/+ mouse model assessed as reduction in intestinal polyp formation with size >2 mm at 150 ppm administered with diet from week 6 to week 18 relative to control; assay type: functional
Cancer cell lines = experiment: Antitumor activity against colon cancer cells in APCMin/+ mouse model assessed as inhibition of colon tumor formation at 150 ppm administered with diet from week 6 to week 18 relative to control; assay type: functional
Mus musculus [3] = experiment: Toxicity in APCMin/+ mouse model assessed as change in body weight at 150 ppm administered with diet from week 6 to week 18 relative to control; assay type: organism-based; conditions: in vivo, po

With `NCCNC(=O)c1cc2ccccc2[nH]c1=O` the Activity (Mus musculus [1]) was “inactive”, the Activity (Mus musculus [2]) was “Active” and the Activity (Cancer cell lines) was “inactive”. For the same compound, the Activity (Mus musculus [3]) was “Non-toxic”.
